Laboratory results as given in US20190374601A1, “METHODS FOR TREATING FUNGAL INFECTIONS” (priority 2017, published 2019).
Marks after values point to notes of the source that are not given here.

Tests used:
Format in all cases: in vivo
T. mentagrophytes [1] = assay: Clinical evaluation of infected skin, T. mentagrophytes dermatophytosis guinea pig model, different doses once weekly, Example 2; details: 10 mg/kg PO days 1 and 8, evaluated study day 12, relative to vehicle control
Experimental: (§1) Procedures for animal care and use, preparation of standard inoculum, and infection of the animals were carried out following the same steps as described in Example 1.
(§2) Infected guinea pigs were randomized into the following (1)-(5) groups (10 per group) (see Table 4): (1) a vehicle control (water+mannitol); (2) terbinafine 10 mg/kg PO days 1 and 8, as a positive control; (3) CD101 10 mg/kg SQ days 1 and 8; (4) CD101 20 mg/kg SQ days 1 and 8; and (5) CD101 40 mg/kg SQ days 1 and 8.
(§3) Animals were treated with CD101 SQ or PO (for terbinafine) once a week on days 1 and 8.
(§4) Study Day 1: Infect the animals with T. mentagrophytes and begin treatments.
(§5) Study Day 8: Last treatment.
(§6) Study Day 12: Clinical evaluation of the four quadrants in the marked area is done. Hair samples were obtained from each quadrant. Hairs (10 per quadrant) were planted in Potato Dextrose Agar, and incubated for 48 h for mycological evaluation. Procedures for clinical and mycological evaluations are described below.
(§7) The compounds was administered SQ or PO (0.3 mL/kg […]).
(§8) Clinical assessment of local changes of the infected skin area was scored as follows:
(§9) 1=Few slightly erythematous places on the skin
(§10) 2=Well-defined redness, swelling with bristling hairs.
(§11) 3=Large areas or marked redness incrustation, scaling, bald patches, ulcerated in places.
(§12) 4=Partial damage to the integument and loss of hair
(§13) 5=Extensive damage to the integument and complete loss of hair at the site of infection.
Any other local skin reactions were noted. The assessment of clinical evaluation in the change of scores per treatment group was expressed as percentage relative to the untreated control group of animals using the following formula:
where T=Scores in the test group. K=Scores in the untreated control

T. mentagrophytes [2] = assay: Hair root invasion test (mycological evaluation), T. mentagrophytes dermatophytosis guinea pig model, different doses once weekly, Example 2; details: 10 mg/kg PO days 1 and 8, evaluated study day 12, relative to vehicle control
Experimental: as §1, §2, §3, §4, §5, §6, §7
(§14) Hair samples were removed with sterile forceps from four quadrants. Ten hair samples from each quadrant were inoculated onto the corresponding quadrant on the Potato Dextrose agar plate and incubated at 30° C. for 2 days. The fungal growth at the hair root was examined under a stereomicroscope. The effectiveness of a compound in reducing the number of mycologically positive hair sample per treated group was expressed as percentage relative to the untreated control group of animals using the following formula:
where T=Positive hair in the test group, K=Positive hair in the Untreated control.

[3] = tested on: T. mentagrophytes ATCC 24953; assay: Clinical evaluation of infected skin, T. mentagrophytes dermatophytosis guinea pig model, Example 1; details: evaluated study day 10, relative to vehicle control
Experimental: (§15) A request was made to the Animal Resource Center (ARC) at Case Western Reserve University to order the required number of male albino Harlan-Sprague-Dawley Guinea-Pigs (San Diego, Calif.) with a body weight of 450-500 g. Animals were allowed to acclimate for a minimum of 5 days prior to use. Environmental controls for the animal room were set to maintain a temperature of 16 to 22° C., a relative humidity of 30-70%, and a 12:12 light-dark cycle.
(§16) T. mentagrophytes ATCC 24953 was used as the infecting fungus. This strain was selected because it can cause skin infection and results in inflammatory reaction.
(§17) T. mentagrophytes (from frozen stock) was sub-cultured on Potato Dextrose Agar plates and incubated at 30° C. for 5-7 days. The colonies were scraped from the plates using sterile normal saline (NaCl 0.85%) solution. After washing for three times with sterile saline the conidia were re-suspended in the same solution. Ten-fold dilutions of conidia suspension were prepared and counted using a hemacytometer. Working suspension of conidia was prepared at a final concentration of 1×10^7 Colony Forming Units (CFUs)/100 μL in normal saline.
(§18) Each animal was anesthetized with a cocktail of xylazine and ketamine: 0.2 mL intramuscularly. Using an electric shaver, hair was clipped on left side of the guinea pig back. A closer shave was done with a disposable razor. Using a stencil, a square of 2.5 cm×2.5 cm was marked. The marked skin area was abraded with sterile fine grit sandpaper. A cell suspension containing 1×10^7 conidia in 100 μL was applied and rubbed thoroughly on the abraded skin.
(§19) Beginning two hours post inoculation, animals were treated subcutaneously (SQ) for CD101 and orally (PO) terbinafine once daily for a period of nine days, or once a week on days 1 and 8.
(§20) Study Day 1: Infected the animals with T. mentagrophytes and begin treatments.
(§21) Study Day 9 (treatment day 9): End treatments.
as §6, with “10:” for “12:”, “was” for “is”, “quadrant” for “quadrant. Hairs”, “quadrant). Hairs” for “quadrant)”
(§22) CD101 was administered SQ in 0.3 mL, while the terbinafine was given orally in 0.3 mL. Vehicle treated group was also included.
as §8, §9, §10, §11, §12, §13
Any other local skin reactions were noted. The assessment of clinical evaluation in the change of scores per treatment group is expressed as percentage relative to the vehicle control group of animals using the following formula:
where, T=Scores in the test group. K=Scores in the untreated control

[4] = tested on: T. mentagrophytes ATCC 24953; assay: Hair root invasion test (mycological evaluation), T. mentagrophytes dermatophytosis guinea pig model, Example 1; details: evaluated study day 10, relative to vehicle control
Experimental: as §15, §16, §17, §18, §19, §20, §21
as §6, with “10:” for “12:”, “was” for “is”, “quadrant” for “quadrant. Hairs”, “quadrant). Hairs” for “quadrant)”
as §22
as §14, with “with a” for “with”, “group is” for “group was”, “the vehicle” for “the untreated”
where, T=Positive hair in the test group, K=Positive hair in the Untreated control.

[5] = 10 mg/kg PO daily for nine days
[6] = 10 mg/kg PO daily for nine days, listed as terbinafine
[7] = 10 mg/kg PO once a week (days 1 and 8)
[8] = 10 mg/kg PO once a week (days 1 and 8), listed as terbinafine

SMILES: CN(C/C=C/C#CC(C)(C)C)Cc1cccc2ccccc12 [Terbinafine, terbinafine, reference compound]
- Percent Efficacy Clinical (T. mentagrophytes [1]): 76.8* %
- Percent Efficacy Clinical (T. mentagrophytes [1]; listed as terbinafine): 76.8%
- Percent Efficacy Mycological (T. mentagrophytes [2]): 54.2* %
- Percent Efficacy Mycological (T. mentagrophytes [2]; listed as terbinafine): 54.2%
- Percent Efficacy Clinical [3, 5]: 78.7* %
- Percent Efficacy Clinical [3, 6]: 78.7%
- Percent Efficacy Clinical [3, 7]: 60.6* %
- Percent Efficacy Clinical [3, 8]: 60.6%
- Percent Efficacy Mycological [4, 5]: 91.6* %
- Percent Efficacy Mycological [4, 6]: 91.6%
- Percent Efficacy Mycological [4, 7]: 83.1* %
- Percent Efficacy Mycological [4, 8]: 83.1%
